Laboratory results from patent publication US6372787B1 (dated 2002).

- melting point: 118 to 119 °C
SMILES: CON=C(C(C)=NN=Cc1ccccc1C(=NOC)C(=O)OC)c1ccc(Cl)cc1
